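Assay format: 96-well plates, 48-hour exposure. GI50 = concentration required for 50% inhibition of growth. TGI marks complete inhibition of growth.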

Common to all, as to test: DTP human tumour cell line panel, 48 h
In test [1] the test system is HCT-15 colon.
Test [2] relates to SK-MEL-28 melanoma.
The subject of test [3] is DMS 114 small cell lung.
Test [4] relates to SK-OV-3 ovarian.
Test [5] relates to UO-31 renal.
For test [6], the system named is COLO 205 colon.
Test [7] has as its system SNB-75 CNS.
Test [8] relates to OVCAR-3 ovarian.
Test [9] deals with U251 CNS.
The test system of test [10] is HOP-62 NSCLC.
The test system of test [11] is TK-10 renal.

As to `O=C1CNC(=O)N1`, the TGI in [1], in test [2], in test [3], in test [4], in test [5] and in [6] was over 1120 µM throughout. Also, the TGI in [7], in test [8], in test [9] and in [10] was over 1120 µM throughout.
For `COc1cc(CN(C)N2C(=O)c3cccc4cc([N+](=O)[O-])cc(c34)C2=O)cc(OC)c1OC`, the TGI in test [1] is over 100 µM; in [2], over 100 µM; in test [4], over 100 µM; in test [5] it was over 100 µM; in test [6], over 100 µM; in test [7], 60.1 µM. The figures for the TGI in test [8], in test [9] and in test [10] were over 100 µM, over 100 µM and 51.9 µM, respectively.
Regarding `CC1(C)CCCC2(C)[C@@H]1CC[C@]13C[C@](C)(CC[C@@H]21)[C@@H]3CO` (stereo not given in full), the TGI in [1], in test [2], in test [3], in test [4], in test [5] and in test [6] was over 100 µM each time. Further, the TGI in [7], in [8], in [11], in test [9] and in [10] was over 100 µM each time.
Regarding `Cc1ccc(NCCO)cc1`, the TGI in [1], in [2], in test [3], in [4], in [5] and in [6] was over 100 µM in each case. For the same compound, the TGI in test [7], in test [8], in test [11], in test [9] and in test [10] was over 100 µM throughout.
For the compound `O=C(NC/C=C/CO)c1ccccc1`, the TGI in test [1], in [2], in test [3], in [4], in [5] and in [6] was over 100 µM in each case. Moreover, the TGI in [7], in test [8], in test [9] and in test [10] was over 100 µM in each case.
Turning to `Fc1cc(C2=Nn3c(nnc3-c3cc(F)c(Cl)cc3Cl)SC2)c(Cl)cc1Cl`, the GI50 was 20.2 µM in test [1]; 21.5 µM in test [2]; 29.2 µM in [4]; 31.3 µM in test [5]; 19 µM in [6]; 26.2 µM in test [7]. Further, the values for the GI50 in [8], in test [11] and in [9] were 11.5 µM, 37.4 µM and 20.4 µM, respectively. Besides, the TGI in test [1] is 70.2 µM; in [2] it was 54.3 µM; in test [4], over 100 µM; in test [5], over 100 µM; in test [6] it was 43.1 µM; in test [7] it was over 100 µM. For the same compound, the TGI in [8] was 46.9 µM; in test [11], over 100 µM; in [9], 64 µM.
As for `COc1ccc(-c2nnc3c4ccccc4sn23)cc1`, the TGI in test [1] was over 100 µM; in test [2], over 100 µM; in [3], 93.8 µM; in test [5] it was 80.5 µM; in test [6] it was over 100 µM; in test [7], 87.3 µM. For the same compound, the TGI in test [8] is 61.5 µM; in test [11], over 100 µM; in test [9] it was over 100 µM; in test [10] it was over 100 µM.
Regarding `O=c1n(Cc2ccccc2)c2ccccc2n1CC1CS1` (stereo not given), the TGI in [1], in test [2], in test [3], in test [4], in test [5] and in [6] was over 100 µM each time. Further, the TGI in [7], in test [8], in test [11] and in test [10] was over 100 µM throughout.
On to `Cc1cc(C)c(S(=O)(=O)N(CCCCCCN)OCCCON(CCCCCCN)S(=O)(=O)c2c(C)cc(C)cc2C)c(C)c1`, for which the TGI in test [1] worked out at 3.6 µM; in test [4], 3.37 µM; in [5], 4.04 µM; in test [6] it was 3.76 µM; in [7] it was 3.17 µM; in test [8] it was 3.34 µM. The TGI is 3.07 µM in test [11], 3.15 µM in [9] and 3.6 µM in test [10].
For `COc1ccc2c(c1)C(=O)/C(=C/c1ccccc1)C2`, the concentration for total growth inhibition (TGI) in test [1], in [2], in [4], in test [5], in test [7] and in test [8] was over 100 µM each time. The total growth inhibition concentration (TGI) in [9] and in test [10] was over 100 µM in each case.
Turning to `CC12CCC3C(CCC4(O)C=CCCC34C=O)C1(O)CC(O)C2c1ccc(=O)oc1` (stereo not given), the TGI was 0.178 µM in test [1]; 0.799 µM in [2]; 0.248 µM in test [4]; 0.141 µM in test [5]; 0.381 µM in test [6]; 0.246 µM in test [7]. The total growth inhibition concentration (TGI) came out at 0.0939 µM in [8], 0.197 µM in [9] and 0.0954 µM in [10].
For `CCNc1nc2c(=O)n(C)c(=O)n(C)c2s1`, the TGI in test [1], in [2], in [4], in [5], in test [6] and in [7] was over 100 µM in each case. In addition, the TGI in test [8], in test [11], in [9] and in [10] was over 100 µM in each case.
With `ClCc1nnc2n1-c1ccc(Cl)cc1SC2`, the TGI in test [1] was 23.8 µM; in test [2], 17.6 µM; in test [3] it was 9.58 µM; in test [4], 12.6 µM; in test [5] it was 30.3 µM; in [6], 13 µM. For the same compound, the TGI in [7] was determined as 10.3 µM; in test [8], 8.09 µM; in test [9], 19.8 µM; in [10], 17.4 µM.

As usually defined, the TGI is the concentration at which net growth stops. Lower therefore signals more potent growth arrest. As a reminder, the GI50 is the concentration that inhibits growth by half.

The values are drawn from PubChem BioAssay (NCI).
